According to patent US7223733B2, “Modulation of TRIP-Br function and method of treating proliferative disorders” (National University of Singapore, priority 2004, dated 2007):
Where no end group is shown, it is not given here. [invdT] = inverted (3'-3') thymidine

Experiments:
WI-38 cells = experiment: BrdU incorporation, E2F1/DP1 and cyclin E/Cdk2-induced S phase entry of quiescent WI-38 cells; type: cell-based, human; details: quiescent WI-38, 0.1 μM
Procedure: Cell proliferation assays. For the BrdU incorporation assays, growth-quiescent WI-38 cells in 96-well dishes were transfected with DNA enzyme and/or 100 ng of pCMV/E2F1, pCMV/DP1, pRSV/Cyclin E, or pCMV/Cdk2 and then exposed to Bromodeoxyuridine (BrdU, 100 μM) in the presence or absence of 10% FBS for 20 h. Bromodeoxyuridine (BrdU) incorporation was monitored with a calorimetric ELISA assay using a cell proliferation kit according to manufacturer's recommendations (Boehringer Mannheim). For manual cell count, growth-quiescent WI-38 cells in 24-well dishes were transfected with DNA enzyme and then exposed to 10% FBS for 72 h. The cells were rinsed with PBS, pH 7.4, and trypsinized, and 10 μl of cell suspension was taken from each sample and mixed with equal volume of trypan blue stain (Sigma, 0.4% w/v in 1×PBS). The number of unstained cells was enumerated manually using a hemocytometer. For colony formation assays, growth-quiescent WI-38 cells in 12-well dishes were transfected with DNA enzyme and then exposed to 10% FBS for 120 h. Cells were stained in situ with crystal violet (0.75% w/v hexamethyl-p-rosaniline chloride [SIGMA], 50% ethanol, 1.75% w/v paraformaldehyde, 0.25% w/v NaCl) for 10 min, and then rinsed thoroughly with deionized water to remove excess stains.
FIG. 13: (A) E-Br1 or E-Br2 suppresses serum-inducible S phase entry. […]

CCNE gene = experiment: Semi-quantitative RT-PCR of CCNE in serum-stimulated WI-38 cells; type: cell-based, human; details: WI-38, serum stimulation
Procedure: Semi-quantitative RT-PCR. Following various treatments, WI-38 cells in 6-well culture dish were subjected to total RNA extraction using the TRIZOL® Reagent (Life Technologies). Total RNA (4 μg) was reversed transcribed using oligo-dT and M-MLV reverse transcriptase in a total reaction volume of 20 μl. Polymerase Chain Reactions (PCR) were carried out on 3 μl cDNA sample in the presence of […] deoxyribonucleotide triphosphates (dNTPs) and 40 μM of specific primer pairs in a total reaction volume of 50 μl. The cycling profile for PCR was as follow: 30 cycles of denaturation (94° C., 30 sec), annealing (51° C., 30 sec) and extension (72° C., 2 min), with a 2-minute initial denaturation step at 94° C. and a 10-minute polishing step at 72° C. at the end. Sequences of gene-specific primers are available upon request. Post-PCR samples were analyzed by agarose gel electrophoresis.
FIG. 14: (A) E-Br1 or E-Br2 attenuates mitogen-stimulated CCNE gene induction. Sub-confluent WI-38 cells were serum-starved for 72 h. Following DNA enzyme transfection, the cultures were re-stimulated with serum and allowed to proliferate. After 20 h, cells were harvested and total RNA extracted for semi-quantitative RT-PCR to assess CCNE expression. β-actin was included as an internal control. PCR products were resolved by agarose gel electrophoresis and ethidium bromide-stained DNA bands were visualized under UV. […]

[1] = test system: cyclin E, Cdk4, cyclin D1 and p27^KIP1; experiment: Western blot of cyclin E, Cdk4, cyclin D1 and p27KIP1 in WI-38 cells; type: cell-based, human; details: WI-38, 20 h
Procedure: Western blotting analysis. Cells in 6-well culture dish were washed in cold PBS and lysed in sample buffer (50 mM Tris-Cl, pH 6.8, 2% SDS, 10% glycerol, 0.1% bromophenol blue and 100 mM DTT). Whole cell lysates were heated at 100° C. for 10 minutes prior to electrophoresis. Separation of complex protein mixtures was achieved using a discontinuous polyacrylamide gel electrophoresis system consisting of a stacking gel and a 10% separating gel. Electrophoresis was performed with 1× running buffer (25 mM Tris pH 8.6, 0.19 M glycine, 0.1% SDS) in a mini vertical electrophoresis apparatus (BIO-RAD) at constant voltage (80 V). Separated proteins were transferred to nitrocellulose membrane (Immobilon™-P, Millipore) by electro-blotting (30V overnight at 4° C.) in transfer buffer (50 mM Tris, 384 mM glycine, 20% methanol, 0.01% SDS). Following blocking (1×PBS, 0.5% Tween 20, 4% [w/v] non-fat milk), target proteins were detected using a 1:2,500 dilution of specific primary antibodies. Anti-mouse or anti-rabbit IgG antibodies conjugated with horseradish peroxidase (Santa Cruz) were used to visualize immunoreactive proteins at 1:2,500 dilutions using enhanced chemiluminescence (Pierce).
FIG. 14: (A) E-Br1 or E-Br2 attenuates mitogen-stimulated CCNE gene induction. Sub-confluent WI-38 cells were serum-starved for 72 h. Following DNA enzyme transfection, the cultures were re-stimulated with serum and allowed to proliferate. After 20 h, cells were harvested and total RNA extracted for semi-quantitative RT-PCR to assess CCNE expression. β-actin was included as an internal control. PCR products were resolved by agarose gel electrophoresis and ethidium bromide-stained DNA bands were visualized under UV. […] Sub-confluent WI-38 cells were serum-starved for 72 h. Following transfection with DNA enzyme, the cultures were allowed to proliferate. After 20 h, cells were harvested for western blot (WB) analysis of cyclin E, Cdk4, cyclin D1 and p27^KIP1 expression. Coomassie-stained protein was included as control for normalization.

[2] = test system: Caski (cervical carcinoma); experiment: Anti-proliferative phenotypes in Caski cells; type: cell-based; details: data not shown

Row | Substance | S phase entry induced by co-expression of E2F1/DP1 and cyclin E/Cdk2 (WI-38 cells) | serum-induced CCNE gene activation (CCNE gene) | expression of Cdk4, cyclin D1 and p27^KIP1 [1] | mitogen-induced cyclin E protein expression [1] | response of Caski cells [2]
1 | 5′-T TACCCAACAGGCTAGCTACAACGAATATCACA-3′ (DNA TTACCCAACAGGCTAGCTACAACGAATATCACA; DNA, 3' [invdT], backbone not given here) [E-Br2] | does not influence | suppressed | without altering the expression | prevents mitogen-induced cyclin E expression | 
2 | 5′-T TGCTCAGCAGGCTAGCTACAACGACTTGCTCA-3′ (DNA TTGCTCAGCAGGCTAGCTACAACGACTTGCTCA; DNA, 3' [invdT], backbone not given here) [E-Br1] | does not influence | suppressed | without altering the expression | prevents mitogen-induced cyclin E expression | 
3 | ERQIKIWFQNRRMKWKKATGCLLDDGLEGLFEDID (ERQIKIWFQNRRMKWKKATGCLLDDGLEGLFEDID-NH2) [*Br1] |  |  |  |  | in manners similar to those exhibited by U2OS cells
4 | ERQIKIWFQNRRMKWKKTGFLTDLTLDDILFADID (ERQIKIWFQNRRMKWKKTGFLTDLTLDDILFADID-NH2) [*Br2] |  |  |  |  | in manners similar to those exhibited by U2OS cells
